# Laboratory results published in the RepoRT retention time repository (doi:10.1021/es4044374).
# Experiment: RP, Waters XBridge C18, 50 × 2.1 mm, 3.5 µm, 30 °C, 0.2 mL/min, estimated dead time 0.55 min; A: water + 0.1% formic acid, pH 3; B: methanol + 0.1% formic acid, pH 3; gradient (min/%B) 0/10 4/50 17/95 25/95 25.1/10 30/10
# Settings: stereoisomer not certain
row,LC retention time [min],Structure (SMILES)
1,3.2,COCCOCCOC [Diglyme]
2,5.9,COCCN(C(=O)CS(=O)(=O)O)c1c(C)cccc1C [Dimethachlor ESA]
3,6.6,COCCN(C(=O)C(=O)O)c1c(C)cccc1C [Dimethachlor OXA]
4,7.5,COCC(C)N(C(=O)C(=O)O)c1c(C)csc1C (stereo not given) [Dimethenamid OXA]
5,6.7,COCC(C)N(C(=O)CS(=O)(=O)O)c1c(C)csc1C (stereo not given) [Dimethenamide ESA]
6,5.2,CC(=O)N(C)N(C(=O)C(=O)N(C)C)c1ccccc1 [Dioxoaminopyrine]
7,8.3,NC(=O)Nc1ccc(Cl)c(Cl)c1 [Diuron-desdimethyl]
8,8.5,CNC(=O)Nc1ccc(Cl)c(Cl)c1 [Diuron-desmethyl]
9,8.9,CN(C)C(=O)Nc1ccc(Cl)c(Cl)c1 [Diuron]
10,11.5,CCCCc1oc2ccc(NS(C)(=O)=O)cc2c1C(=O)c1ccc(OCCCN(CCCC)CCCC)cc1 [Dronedarone]
11,6.3,CCCCc1ncc(C=C(Cc2cccs2)C(=O)O)n1Cc1ccc(C(=O)O)cc1 [Eprosartan]
12,8.5,CCC1OC(=O)C(C)C(OC2CC(C)(OC)C(O)C(C)O2)C(C)C(OC2OC(C)CC(N(C)C)C2O)C(C)(O)CC(C)C(=O)C(C)C(O)C1(C)O (stereo not given) [Erythromycin]
13,9.6,CCC(CO)NCCNC(CC)CO (stereo not given) [Ethambutol]
14,6,CC1(C)C(=O)Oc2ccc(OS(C)(=O)=O)cc21 [Ethofumesate-2-keto]
15,15.7,CC(C)OC(=O)C(C)(C)Oc1ccc(C(=O)c2ccc(Cl)cc2)cc1 [Fenofibrate]
16,12.6,CC(C)(Oc1ccc(C(=O)c2ccc(Cl)cc2)cc1)C(=O)O [Fenofibric acid]
17,12.6,CCOC(=O)NCCOc1ccc(Oc2ccccc2)cc1 [Fenoxycarb]
18,5.3,OC(Cn1cncn1)(Cn1cncn1)c1ccc(F)cc1F [Fluconazole]
19,6,CC(C)N(C(=O)CS(=O)(=O)O)c1ccc(F)cc1 [Flufenacet ESA]
20,6.2,CC(C)N(C(=O)C(=O)O)c1ccc(F)cc1 [Flufenacet OXA]
21,14.6,O=C(O)c1ccccc1Nc1cccc(C(F)(F)F)c1 [Flufenamic acid]
22,9.2,CNCCC(Oc1ccc(C(F)(F)F)cc1)c1ccccc1 (stereo not given) [Fluoxetine]
23,6.8,NS(=O)(=O)c1cc(C(=O)O)c(NCc2ccco2)cc1Cl [Furosemide]

row,LC retention time [min],Structure (SMILES)
1,14.7,CC1COC(=O)c2cc3c(cc21)C(C)(C)C(C)C3(C)C (stereo not given) [Galaxolidone]
2,1,Nc1ccn(C2OC(CO)C(O)C2(F)F)c(=O)n1 (stereo not given) [Gemcitabine]
3,2.2,NS(=O)(=O)c1cc2c(cc1Cl)NCNS2(=O)=O [Hydrochlorothiazide]
4,13.6,CC(C)Cc1ccc(C(C)C(=O)O)cc1 (stereo not given) [Ibuprofen]
5,11,C1=Cc2ccccc2Nc2ccccc21 [Iminostilbene]
6,12.9,COc1ccc2c(c1)c(CC(=O)O)c(C)n2C(=O)c1ccc(Cl)cc1 [Indomethacin]
7,1.6,CN(CC(O)CO)C(=O)c1c(I)c(NC(=O)C(CO)CO)c(I)c(C(=O)N(C)CC(O)CO)c1I (stereo not given) [Iobitridol]
8,1.6,CC(=O)N(CC(O)CO)c1c(I)c(C(=O)NCC(O)CO)c(I)c(C(=O)NCC(O)CO)c1I (stereo not given) [Iohexol]
9,1.6,CN(C(=O)CO)c1c(I)c(C(=O)NCC(O)CO)c(I)c(C(=O)NCC(O)CO)c1I (stereo not given) [Iomeprol]
10,1.2,CC(O)C(=O)Nc1c(I)c(C(=O)NC(CO)CO)c(I)c(C(=O)NC(CO)CO)c1I (stereo not given) [Iopamidol]
11,2.7,COCC(=O)Nc1c(I)c(C(=O)NCC(O)CO)c(I)c(C(=O)N(C)CC(O)CO)c1I (stereo not given) [Iopromide]
12,1.3,CC(=O)Nc1c(I)c(C(=O)O)c(I)c(C(=O)NCCO)c1I [Ioxitalamic acid]
13,11.4,Cc1ccc(C(C)NC(=O)C(NC(=O)OC(C)C)C(C)C)cc1 (stereo not given) [Iprovalicarb]
14,9.2,CCCCC1=NC2(CCCC2)C(=O)N1Cc1ccc(-c2ccccc2-c2nn[nH]n2)cc1 [Irbesartan]
15,6.7,CSc1nc(N)nc(NC(C)(C)C)n1 [Irgarol-descyclopropyl]
16,9.2,CSc1nc(NC2CC2)nc(NC(C)(C)C)n1 [Irgarol]
17,8,CC(C)c1ccc(NC(N)=O)cc1 [Isoproturon-didemethyl]
18,8.6,CNC(=O)Nc1ccc(C(C)C)cc1 [Isoproturon-monodemethyl]
19,9.6,CC(C(=O)O)c1cccc(C(=O)c2ccccc2)c1 (stereo not given) [Ketoprofen]
20,5.4,Nc1nnc(-c2cccc(Cl)c2Cl)c(N)n1 [Lamotrigine]
21,2.9,c1ccc(C2CN3CCSC3=N2)cc1 (stereo not given) [Levamisole]
22,4.2,CCN(CC)CC(=O)Nc1c(C)cccc1C [Lidocaine]
23,14.5,Cc1cccc(Nc2ccccc2C(=O)O)c1C [Mefenamic acid]

row,Structure (SMILES),LC retention time [min]
1,O=C(Nc1ccc(F)cc1F)c1cccnc1Oc1cccc(C(F)(F)F)c1 [Diflufenican],14.4
2,COCCN(C(=O)CCl)c1c(C)cccc1C [Dimethachlor],9.1
3,COCC(C)N(C(=O)CCl)c1c(C)csc1C (stereo not given) [Dimethenamid-P],10
4,CNC(=O)CSP(=S)(OC)OC [Dimethoate],5.2
5,COc1ccc(C(=CC(=O)N2CCOCC2)c2ccc(Cl)cc2)cc1OC [Dimethomorph],10.8
6,CCC(C)c1cc([N+](=O)[O-])cc([N+](=O)[O-])c1O (stereo not given) [Dinoseb],13
7,CC=C1N(C)C(C)CC1(c1ccccc1)c1ccccc1 (stereo not given) [EDDP],6.5
8,CNC(C)C(O)c1ccccc1 (stereo not given) [Ephedrine],2.9
9,Fc1ccc(C2(Cn3cncn3)OC2c2ccccc2Cl)cc1 (stereo not given) [Epoxiconazole],11.7
10,CCOC1Oc2ccc(OS(C)(=O)=O)cc2C1(C)C (stereo not given) [Ethofumesate],10
11,C=C1CC2C(CCC3(C)C(=O)CCC23)C2(C)C=CC(=O)C=C12 (stereo not given) [Exemestane],10.1
12,CC(Cc1ccc(C(C)(C)C)cc1)CN1CCCCC1 (stereo not given) [Fenpropidin],9.5
13,CC(Cc1ccc(C(C)(C)C)cc1)CN1CC(C)OC(C)C1 (stereo not given) [Fenpropimorph],9.4
14,N#Cc1nn(-c2c(Cl)cc(C(F)(F)F)cc2Cl)c(N)c1C(F)(F)F [Fipronil-desulfinyl],12.5
15,N#Cc1nn(-c2c(Cl)cc(C(F)(F)F)cc2Cl)c(N)c1SC(F)(F)F [Fipronil-sulfide],13
16,N#Cc1nn(-c2c(Cl)cc(C(F)(F)F)cc2Cl)c(N)c1S(=O)(=O)C(F)(F)F [Fipronil-sulfone],13.5
17,N#Cc1nn(-c2c(Cl)cc(C(F)(F)F)cc2Cl)c(N)c1S(=O)C(F)(F)F (stereo not given) [Fipronil],12.6
18,N#CCNC(=O)c1cnccc1C(F)(F)F [Flonicamid],3.9
19,CC(Oc1ccc(Oc2ccc(C(F)(F)F)cn2)cc1)C(=O)O (stereo not given) [Fluazifop],10.9
20,O=[N+]([O-])c1cc(C(F)(F)F)c(Cl)c([N+](=O)[O-])c1Nc1ncc(C(F)(F)F)cc1Cl [Fluazinam],15.9
21,N#Cc1c[nH]cc1-c1cccc2c1OC(F)(F)O2 [Fludioxonil],10.7
22,CC(C)N(C(=O)COc1nnc(C(F)(F)F)s1)c1ccc(F)cc1 [Flufenacet],11.7

row,Structure (SMILES),LC retention time [min]
1,Nc1c(Cl)c(F)nc(OCC(=O)O)c1Cl [Fluroxypyr],6.9
2,C[Si](Cn1cncn1)(c1ccc(F)cc1)c1ccc(F)cc1 [Flusilazole],12.4
3,COc1cc(OC)nc(NC(=O)NS(=O)(=O)c2cc(NC=O)ccc2C(=O)N(C)C)n1 [Foramsulfuron],7.8
4,NCC1(CC(=O)O)CCCCC1 [Gabapentin],3.6
5,O=P1(NCCCl)OCCCN1CCCl (stereo not given) [Ifosfamide],6.3
6,COCc1cnc(C2=NC(C)(C(C)C)C(=O)N2)c(C(=O)O)c1 (stereo not given) [Imazamox],5.7
7,O=C1NCCN1Cc1ccc(Cl)nc1 [Imidacloprid-urea],4.6
8,O=[N+]([O-])/N=C1\NCCN1Cc1ccc(Cl)nc1 [Imidacloprid],4.8
9,CCCCNC(=O)OCC#CI [Iodocarb],8.4
10,N#Cc1cc(I)c(O)c(I)c1 [Ioxynil],9.3
11,CC(C)c1ccc(NC(=O)N(C)C)cc1 [Isoproturon],8.7
12,CNC1(c2ccccc2Cl)CCCCC1=O (stereo not given) [Ketamine],4.6
13,CON=C(C(=O)OC)c1ccccc1COc1ccccc1C [Kresoxim-methyl],12.5
14,O=c1[nH]c2c(c(=O)n1C1CCCCC1)CCC2 [Lenacil],8.6
15,CCC(C(N)=O)N1CCCC1=O (stereo not given) [Levetiracetam],3
16,CON(C)C(=O)Nc1ccc(Cl)c(Cl)c1 [Linuron],10
17,Cc1cc(Cl)ccc1OCC(=O)O [MCPA],9.5
18,Cc1cc(Cl)ccc1OCCCC(=O)O [MCPB],11.9
19,Cc1cc(Cl)ccc1OC(C)C(=O)O (stereo not given) [Mecoprop],10.8
20,CNC(C)C(=O)c1ccc(C)cc1 (stereo not given) [Mephedrone],4.3
21,CS(=O)(=O)c1ccc(C(=O)C2C(=O)CCCC2=O)c([N+](=O)[O-])c1 [Mesotrione],6.2
22,COCC(=O)N(c1c(C)cccc1C)C(C)C(=O)OC (stereo not given) [Metalaxyl],8.7
